Source: PMC9785280, “Synthesis, Antiproliferative Evaluation and QSAR Analysis of Novel Halogen- and Amidino-Substituted Benzothiazoles and Benzimidazoles” (International Journal of Molecular Sciences, 2022)
Several values for one entry are separate records, joined by “and”; a condition that tells them apart may be missing. Equal entries are not always repeated.

Key:
[1] = system: MDCK1 (Madin–Darby canine kidney) cells; assay: MTT antiproliferative assay, non-tumor MDCK1 cells; format: cell-based; conditions: Canis lupus familiaris, MDCK1, 72 h, mean ± SD of three independent experiments, normal cells
How it was run: (§1)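 Cells are seeded and treated the next day with test agents across five 10-fold concentrations up to 10^−4 M, with a solvent control matched to working concentrations. After 72 h, dehydrogenase activity is measured by MTT reduction, and GI50 is derived from concentration–percent inhibition curves.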

human fibroblasts (BJ) = assay: MTT antiproliferative assay, normal BJ fibroblasts; format: cell-based; conditions: for IC50: Homo sapiens, Fibroblast, 72 h, MTT, mean ± SD of three independent experiments, normal cells
How it was run: as §1

[2] = system: HeLa (cervical adenocarcinoma) cells; assay: MTT antiproliferative assay, HeLa; format: cell-based; conditions: Homo sapiens, 72 h, mean ± SD of three independent experiments
How it was run: as §1

[3] = system: CaCo-2 (colon adenocarcinoma) cells; assay: MTT antiproliferative assay, CaCo-2; format: cell-based, human; conditions: Homo sapiens, Caco-2; 72 h, MTT, mean ± SD of three independent experiments
How it was run: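 CaCo-2 cells, plated at 2 × 10^4 cells/mL in DMEM with 10 % FBS at 37 °C/5% CO2, were treated 24 h later with five 10-fold dilutions (10^−7 to 10^−4 M) for 72 h. Viability was measured by MTT (4 h, formazan dissolved in DMSO, OD 595 nm) against background and untreated controls. GI50 came from log-concentration versus percent-inhibition fits.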

[4] = system: HuT78 (T-cell lymphoma) cells; assay: MTT antiproliferative assay, HuT78; format: cell-based, human; conditions: for IC50: Homo sapiens, HuT78, 72 h, 72 h, MTT, mean ± SD of three independent experiments; for SI (MDCK) HuT78: SI = IC50 MDCK1 / IC50 HuT78
How it was run: as §1

[5] = system: SW620 (colorectal adenocarcinoma, metastatic) cells; assay: MTT antiproliferative assay, SW620; format: cell-based, human; conditions: for IC50: Homo sapiens, SW-620, 72 h, MTT, mean ± SD of three independent experiments, read-out: IC50 (µM) SW620
Description: (§2) The growth inhibition activity was assessed according to the slightly modified procedure performed at the National Cancer Institute, Developmental Therapeutics Program.
(§3) Examined compounds were dissolved in DMSO (1 × 10^−2 M). The experiments were carried out on seven human tumor cell lines and two normal cell lines. The following cell lines were used: HeLa (human cervical adenocarcinoma; purchased from ATCC), CaCo-2 (human colorectal adenocarcinoma), HuT78 (T-cell lymphoma), THP-1 (acute monocytic leukemia), SW620 (colorectal adenocarcinoma, metastatic), MDA-MB-231 (human breast adenocarcinoma), HL60 (promyelocytic leukemia cell line), foreskin fibroblast cells (BJ) and MDCK1 (Madine–Darby canine kidney fibroblast like cells). MDCK1 cells were used between 24 and 26 passages.
(§4) Adherent cells were cultured in the Dulbecco’s modified Eagle medium—DMEM (Gibco, EU) supplemented with 10 % heat-inactivated fetal bovine serum (FBS, Gibco, EU), 2 mM glutamine, and 100 U/0.1 mg penicillin/streptomycin. Cells on suspension were cultured in RPMI 1640 (Gibco, EU) medium supplemented with 10 % FBS (Gibco, EU), 2 mM glutamine, 1 mM sodium pyruvate, 10 mM HEPES. Cells were grown in humidified atmosphere under the conditions of 37 °C/5% of CO2 gas in the CO2 incubator (IGO 150 CELLlife^TM, JOUAN, Thermo Fisher Scientific, Waltham, MA, USA). A erythrosin B (Sigma-Aldrich, St. Louis, MO, USA) dye exclusion method was used to assess cell viability before plating.
(§5) Adherent cells (HeLa, CaCo-2, MCF-7 and MDCK-1) were plated in 96-well flat bottom plates (Greiner, Frickenhausen, Austria) at a concentration of 2 × 10^4 cells/mL. Suspension cells (THP-1 and HuT78) were plated in 96-well microtiter plates (Sarstead, Newton, USA) at a concentration of 1 × 10^5 cells/mL. Twenty-four hours later, cells were treated with test agents in […] 10-fold dilutions ([…] to 10^−4 M) and incubated for further 72 h. Working dilutions were freshly prepared on the day of testing. The solvent was also tested for eventual inhibitory activity by adjusting its concentration to be the same as in working concentrations. After 72 h of incubation, the cell growth rate was evaluated by performing the MTT assay, which detects dehydrogenase activity in viable cells. For this purpose, upon completion of the incubation period, growth medium was discarded and 50 μL of MTT was added to each well at a concentration of 5 mg/mL. After four hours of incubation at 37 °C, water insoluble MTT-formazan crystals were dissolved in 150 μL of dimethyl-sulfoxide (DMSO) for adherent cells, and in 10 % SDS with 0.01 M/L HCl for cells grown in suspension. The absorbance (OD, optical density) was measured on a microplate reader (iMark, BIO RAD, Hercules, CA, USA) at 595 nm.
(§6) Percent of life cells was calculated as follows: % = OD (sample)–OD (background)/OD (control)–OD (background) × 100.
(§7) Optical density (OD) of background for adherent cells is the OD of MTT solution and DMSO; OD (background) for suspension cells is OD of the culture medium with MTT and 10% SDS with 0.01 M/L HCl; OD (control) is the OD of the cells growth without tested compounds.
(§8) Calculation of GI50 value curves and QC analysis is performed by using the Excel tools and GraphPadPrism software (La Jolla, CA), v. 5.03. Briefly, individual concentration effect curves are generated by plotting the logarithm of the concentration of tested compounds(X) vs. corresponding percent inhibition values (Y) using least squares fit. The best fit GI50 values are calculated using Log (inhibitor) versus normalized response—Variable slope equation, where Y Ľ 100/(1 ţ 10 ((LogIC50 _ X) * HillSlope)). QC criteria parameters (Z0, S:B, R2, HillSlope) were checked for every GI50 curve.

[6] = system: MDA-MB-231 (human breast adenocarcinoma) cells; assay: MTT antiproliferative assay, MDA-MB-231; format: cell-based; conditions: for IC50: Homo sapiens, MDA-MB-231, 72 h, MTT, mean ± SD of three independent experiments
Description: as §2, §3, §4, §5, §6, §7, §8

[7] = system: HL60 (promyelocytic leukemia) cells; assay: MTT antiproliferative assay, HL60; format: cell-based, human; conditions: for IC50: Homo sapiens, HL-60, 72 h, MTT, mean ± SD of three independent experiments; for SI (MDCK) HL60: SI = IC50 MDCK1 / IC50 HL60; for SI (BJ) HL60: SI = IC50 BJ / IC50 HL60
Description: as §2, §3, §4, §5, §6, §7, §8

[8] = system: THP1 (human monocytic leukemia) cells; assay: MTT antiproliferative assay, THP1; format: cell-based; conditions: for IC50: Homo sapiens, THP-1, 72 h, MTT, mean ± SD of three independent experiments; for SI (BJ) THP1: SI = IC50 BJ / IC50 THP1; for SI (MDCK) THP1: SI = IC50 MDCK1 / IC50 THP1
Description: as §2, §3, §4, §5, §6, §7, §8

HuT78 cells = assay: Cell cycle analysis (PI, flow cytometry); format: cell-based, human; conditions: HuT78, 5 µM, 24 h, versus untreated cells
Description: The HuT78 cells were plated in 6-well plates at a concentration of 5 × 10^5 cells per well and treated 24 h and 48 h with selected compounds 36c, 42a, 42c, 45a, 45b, 45c and 46c at a concentration of 5 μM. After drug treatment, the cells were fixed with ice-cold 70% ethanol in phosphate-buffered saline (PBS) and incubated with 0.3 μg/mL propidium iodide for 30 min at room temperature. Before being analyzed by flow cytometry (BD FACSCalibur, Becton Dickinson, San Jose, CA, SAD), samples were treated with 0.4 μg/mL RNase A for 5 min at room temperature. The resultant DNA histograms were generated and analyzed using FlowJo 7.6 software (Treestar, Inc, Ashland, OR, USA). Experiments were done in duplicate and the quantitative data are reported as average value ± standard deviation. Comparisons between control (non-treated) and treated groups were done using one-way analysis of variance (ANOVA) with Tukey–Kramer’s post hoc test with MedCalc statistical program. P-value less than 0.05 was considered statistically significant.

MCF-7^wt cells = system: MCF-7^wt cells; set-up: method as in PMID 23623491; conditions: estrogen receptor-positive MCF-7^wt cells ref 17,18; cited from earlier work

| Structure (SMILES) | IC50 [1] [µM] | toxicity to normal BJ cells (in words) (human fibroblasts (BJ)) | IC50 (human fibroblasts (BJ)) [µM] | IC50 [2] [µM] | IC50 [3] [µM] | IC50 [4] [µM] | SI (MDCK) HuT78 [4] | IC50 [5] [µM] | IC50 [6] [µM] | IC50 [7] [µM] | SI (MDCK) HL60 [7] | IC50 [8] [µM] | G2/M phase cell fraction (HuT78 cells) | SI (BJ) HuT78 ([4]; SI = IC50 BJ / IC50 HuT78) | SI (MDCK) SW620 ([5]; SI = IC50 MDCK1 / IC50 SW620) | SI (MDCK) MDA-MB-231 ([6]; SI = IC50 MDCK1 / IC50 MDA-MB-231) | SI (BJ) HL60 [7] | SI (BJ) THP1 [8] | SI (MDCK) THP1 [8] | IC50 (MCF-7^wt cells) [µM] |
| --- | --- | --- | --- | --- | --- | --- | --- | --- | --- | --- | --- | --- | --- | --- | --- | --- | --- | --- | --- | --- |
| COc1cc(-c2nc3ccc(C4=NCCCN4)cc3[nH]2)ccc1OCc1cn(Cc2ccccc2)nn1 [45c] | 68.5 ± 22.7 | not toxic | > 100 | > 100 | > 100 | 4.1 ± 3.3 | 16.7 | > 100 | > 100 | 25.1 ± 16 | 2.73 | > 100 | decrease in G2/M phase |  |  |  |  |  |  |  |
| COc1cc(-c2nc3ccc(C4=NCCCN4)cc3[nH]2)ccc1OCC(=O)c1ccccc1 [42c] | > 100 |  | 32.8 ± 4.1 | > 100 | > 100 | 24.9 ± 4.6 | 4.0 | 29.8 ± 3 | 38.9 ± 4.2 | 19.5 ± 0.8 | 5.13 | 19.7 ± 2.4 | decrease in G2/M phase | 1.32 | 3.36 | 2.57 | 1.68 | 1.68 | 5.13 |  |
| Fc1cc(-c2nc3ccc(C4=NCCCN4)cc3[nH]2)ccc1OCc1cn(Cc2ccccc2)nn1 [45b] | 46.1 ± 14.8 |  | 82.1 ± 0.4 | > 100 | > 100 | 5.5 ± 4 | 8.36 | > 100 | > 100 | 30 ± 12.3 | 1.54 | 2.5 ± 1.5 | decrease in G2/M phase |  |  |  | 2.74 | 32.84 | 18.44 |  |
| c1ccc(Cn2cc(COc3ccc(-c4nc5ccc(C6=NCCCN6)cc5[nH]4)cc3)nn2)cc1 [45a] | > 100 |  |  | > 100 | > 100 | 4.8 ± 3.6 | 20.83 | > 100 | > 100 | 48.1 ± 16.4 | 2.07 |  | decrease in G2/M phase |  |  |  | 1.15 | 69.5 and 70 | 125 |  |
| Nc1ccc(-c2nc3ccccc3s2)cc1 [CJM-126] |  |  |  |  |  |  |  |  |  |  |  |  |  |  |  |  |  |  |  | < 0.001 |
